Assay results: publication PMC12304293, “Combatting virulent gut bacteria by inhibiting the biosynthesis of a two-component lanthipeptide toxin” (Nature Communications, 2025)
“And” between values parts separate entries of the source, which are not always exact repeats. Identical values can stand only once. Like-named read-outs stand apart in the source and are kept apart here. Non-standard residues stand in square brackets, D forms with d. Residues, ends and D or L forms follow the SMILES beside them. *: point of attachment. boroGlu = O=C(O)CC[C@H](N*)B(O)O; Gly(cPr) = N[C@H](C(=O)O)C1CC1

Legend:
[1] = type: in vitro ADME, Enterococcus faecalis; details: 100 µM, 37 °C, 20 h
Experimental: To investigate the stability of 9 in the presence of E. faecalis, cell extracts treated with 9 were tested for inhibitory activity. […] Cultures that were treated with 100 µM of 9 at 37 °C for 20 h gave extracts that inhibited the activity of CylA in vitro. The inhibitory activity of these extracts was about 3-fold less than a sample of fresh 9.
Similiarly, 9 was diluted to 100 µM in BHI that was inoculated with E. faecalis ATCC 29212 before incubating at 37 °C for 20 h. The overnight culture was flash frozen and lyophilized. The lyophilized samples were extracted with a volume of 90% methanol/10% water that was equal to the volume of the sample prior to lyophilization. The extract was assumed to have a concentration of 100 µM. […]
Human Serum + 9 Human Serum
Log(Concentration (µM)) Log(Concentration(µM))
Supplementary Figure 19. The stability of inhibitor 9 in the pres ence of human serum or C+ E. faecalis. A ) C y l A i nhibition activity of an extract of human s erum treated with 9 (100 μM) for 3 h at 37 ̊C. The resulting solution was used to determine the remaining activity of the inhibitor in a […]
CylA activity assay. […] This experiment was perform ed on three different samples of inhibitor (n = 3). […]
(also on this page, place not known: determined. inhibition CylA These IC 50 presence serum This performed A) Non-linear fitting v i/vo IC 50. […]

[2] = test system: E. faecalis FA2-2 (pAM714), E. faecalis ATCC 29212; type: cell-based, Enterococcus faecalis; details: for growth curve reading, ATCC 29212 +9: E. faecalis ATCC 29212 with 9; for growth curve reading, ATCC 29212 +9 / growth curve reading, pAM714 +9: trials 1-3; for growth curve reading, pAM714 +9: E. faecalis pAM714 with 9
Experimental: To a 96-well plate, BHI media was added containing 200 µM of inhibitor 9. An overnight culture of E. faecalis was diluted to a concentration of 10^6 CFU/mL and an equal volume of this culture was added to the well containing inhibitor. A growth control was prepared by combining the diluted bacterial cells with an equal volume of sterile BHI. A sterility control well was filled with sterile BHI to the same volume. The 96-well plate was transferred to a plate reader preheated to 37 °C and the plate was shaken continuously. The OD600 of each well was measured over the course of 24 h. Uncorrected OD600 values were plotted as a function of time. […]
or B) E. faecalis ATCC 29212. Wells containing B HI media were inocul ated with 1 x 106 C F U / m L of E. faecalis .I nhibitor 9 was added to achieve a well concentration of 100 µM. A growth control well not containing 9 an d a sterile control not co ntaining bacteria were s et up on the same plate.
The plate was incubated with shaking at 37 ̊C and the OD600 was measured every 30 min for 18h.
This experiment was conducted on three biological samples (n = 3). Error bars represent the standard of devi ation and are c enter ed at the me an. Source data are p rovided as a Source Data file. […]

For `CC(=O)NCC(=O)N[C@@H](CC(=O)O)C(=O)N[C@H](C(=O)N[C@@H](CCC(N)=O)C(=O)N[C@@H](C)C(=O)N[C@@H](CCC(=O)O)B(O)O)C1CC1` [Compound 9] (Ac-GD[Gly(cPr)]QA-boroGlu), the “inhibitory activity of culture extracts less than a sample of fresh 9” value [1] was “about 3 fold”, the “stability in cultures of E. faecalis” value [1] was “relatively good stability” and the “growth of C+ E. faecalis” value ([2]; 100 µM, FA2-2 (pAM714) or ATCC 29212) was “did not impact the growth”. The “growth curve reading, ATCC 29212 +9” value ([2]; time 0 h) was 0.1154 and 0.116 and 0.0922, the “growth curve reading, ATCC 29212 +9” value ([2]; time 0.5 h) was 0.0985 and 0.1041 and 0.0924 and the “growth curve reading, ATCC 29212 +9” value ([2]; time 1 h) was 0.1003 and 0.1065 and 0.0941. The “growth curve reading, ATCC 29212 +9” value ([2]; time 4 h) was 0.3147 and 0.3334 and 0.308, the “growth curve reading, ATCC 29212 +9” value ([2]; time 4.5 h) was 0.4828 and 0.507 and 0.4713 and the “growth curve reading, ATCC 29212 +9” value ([2]; time 5 h) was 0.7061 and 0.7328 and 0.6866. The “growth curve reading, ATCC 29212 +9” value ([2]; time 6 h) was 0.8111 and 0.8333 and 0.7942, the “growth curve reading, ATCC 29212 +9” value ([2]; time 6.5 h) was 0.8209 and 0.8395 and 0.8063 and the “growth curve reading, ATCC 29212 +9” value ([2]; time 7 h) was 0.8266 and 0.8438 and 0.8065. For the same molecule, the “growth curve reading, ATCC 29212 +9” value ([2]; time 8 h) was 0.8109 and 0.8262 and 0.7852, the “growth curve reading, ATCC 29212 +9” value ([2]; time 8.5 h) was 0.7898 and 0.8142 and 0.7555 and the “growth curve reading, ATCC 29212 +9” value ([2]; time 9 h) was 0.756 and 0.7924 and 0.7138. For the same molecule, the “growth curve reading, ATCC 29212 +9” value ([2]; time 9.5 h) was 0.7216 and 0.7609 and 0.6743, the “growth curve reading, ATCC 29212 +9” value ([2]; time 10 h) was 0.6983 and 0.7557 and 0.6452 and the “growth curve reading, ATCC 29212 +9” value ([2]; time 10.5 h) was 0.6599 and 0.7472 and 0.6197. For the same molecule, the “growth curve reading, ATCC 29212 +9” value ([2]; time 11 h) was 0.651 and 0.7261 and 0.5927, the “growth curve reading, ATCC 29212 +9” value ([2]; time 12 h) was 0.5996 and 0.6855 and 0.5551 and the “growth curve reading, ATCC 29212 +9” value ([2]; time 12.5 h) was 0.6003 and 0.6798 and 0.5403. For the same molecule, the “growth curve reading, ATCC 29212 +9” value ([2]; time 13 h) was 0.594 and 0.6632 and 0.5265, the “growth curve reading, ATCC 29212 +9” value ([2]; time 13.5 h) was 0.5622 and 0.6648 and 0.515 and the “growth curve reading, ATCC 29212 +9” value ([2]; time 14 h) was 0.5532 and 0.6505 and 0.5057. For the same molecule, the “growth curve reading, ATCC 29212 +9” value ([2]; time 14.5 h) was 0.547 and 0.6403 and 0.4947, the “growth curve reading, ATCC 29212 +9” value ([2]; time 15 h) was 0.5331 and 0.6268 and 0.5432 and the “growth curve reading, ATCC 29212 +9” value ([2]; time 15.5 h) was 0.5632 and 0.6227 and 0.5048. For the same molecule, the “growth curve reading, ATCC 29212 +9” value ([2]; time 16 h) was 0.5401 and 0.6149 and 0.5008, the “growth curve reading, ATCC 29212 +9” value ([2]; time 16.5 h) was 0.5274 and 0.6109 and 0.5013 and the “growth curve reading, ATCC 29212 +9” value ([2]; time 17 h) was 0.5274 and 0.5922 and 0.4935. For the same molecule, the “growth curve reading, ATCC 29212 +9” value ([2]; time 17.5 h) was 0.5197 and 0.5739 and 0.5382, the “growth curve reading, ATCC 29212 +9” value ([2]; time 18 h) was 0.5155 and 0.5767 and 0.5324 and the “growth curve reading, pAM714 +9” value ([2]; time 0 h) was 0.0946 and 0.0915 and 0.093. For the same molecule, the “growth curve reading, pAM714 +9” value ([2]; time 0.5 h) was 0.0971 and 0.0931 and 0.0938, the “growth curve reading, pAM714 +9” value ([2]; time 1 h) was 0.099 and 0.095 and 0.0956 and the “growth curve reading, pAM714 +9” value ([2]; time 4 h) was 0.1926 and 0.195 and 0.1996. The “growth curve reading, pAM714 +9” value ([2]; time 4.5 h) was 0.2491 and 0.255 and 0.2626, the “growth curve reading, pAM714 +9” value ([2]; time 5 h) was 0.3385 and 0.3521 and 0.3631 and the “growth curve reading, pAM714 +9” value ([2]; time 6 h) was 0.6065 and 0.6337 and 0.65. For the same molecule, the “growth curve reading, pAM714 +9” value ([2]; time 6.5 h) was 0.7256 and 0.7465 and 0.7496, the “growth curve reading, pAM714 +9” value ([2]; time 7 h) was 0.7199 and 0.7425 and 0.7485 and the “growth curve reading, pAM714 +9” value ([2]; time 8 h) was 0.7208 and 0.7411 and 0.7548. The “growth curve reading, pAM714 +9” value ([2]; time 8.5 h) was 0.7272 and 0.7466 and 0.7599, the “growth curve reading, pAM714 +9” value ([2]; time 9 h) was 0.7255 and 0.7488 and 0.7571 and the “growth curve reading, pAM714 +9” value ([2]; time 9.5 h) was 0.7184 and 0.7445 and 0.7497. For the same molecule, the “growth curve reading, pAM714 +9” value ([2]; time 10 h) was 0.708 and 0.736 and 0.7402, the “growth curve reading, pAM714 +9” value ([2]; time 10.5 h) was 0.6972 and 0.7258 and 0.7305 and the “growth curve reading, pAM714 +9” value ([2]; time 11 h) was 0.6856 and 0.717 and 0.7218. The “growth curve reading, pAM714 +9” value ([2]; time 12 h) was 0.6642 and 0.6996 and 0.7054, the “growth curve reading, pAM714 +9” value ([2]; time 12.5 h) was 0.6586 and 0.6909 and 0.6988 and the “growth curve reading, pAM714 +9” value ([2]; time 13 h) was 0.6446 and 0.6836 and 0.6924. For the same molecule, the “growth curve reading, pAM714 +9” value ([2]; time 13.5 h) was 0.6425 and 0.6781 and 0.6878, the “growth curve reading, pAM714 +9” value ([2]; time 14 h) was 0.6308 and 0.6721 and 0.6814 and the “growth curve reading, pAM714 +9” value ([2]; time 14.5 h) was 0.6266 and 0.6677 and 0.6764. The “growth curve reading, pAM714 +9” value ([2]; time 15 h) was 0.6144 and 0.6613 and 0.6745, the “growth curve reading, pAM714 +9” value ([2]; time 15.5 h) was 0.6099 and 0.6586 and 0.6678 and the “growth curve reading, pAM714 +9” value ([2]; time 16 h) was 0.6043 and 0.6548 and 0.6659. The “growth curve reading, pAM714 +9” value ([2]; time 16.5 h) was 0.6012 and 0.6523 and 0.6623, the “growth curve reading, pAM714 +9” value ([2]; time 17 h) was 0.5956 and 0.6495 and 0.6597 and the “growth curve reading, pAM714 +9” value ([2]; time 17.5 h) was 0.5906 and 0.6489 and 0.6599. For the same molecule, the “growth curve reading, pAM714 +9” value ([2]; time 18 h) was 0.5896 and 0.647 and 0.6581.
